In patent publication US7893288B2, “Poly-halogenated triazapentadiene compositions” (Board of Regents, The University of Texas System, priority 2007, dated 2011):
Values joined by “and” are separate entries in the source; they are usually repeats but may differ in a detail not shown here. Identical values can stand only once.

Columns and labels:
Format in all cases: cell-based
[1] = system: Staphylococcus aureus (ATCC 25923); test: Disk sensitivity test (modified Kirby-Bauer), S. aureus;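 note: Compound-loaded filter disks on LB agar plates seeded with a confluent bacterial lawn, compound dissolved in DMSO, plates kept overnight at 37 °C, then inhibition zone around disk measured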
Procedure: (§1) Filter disks were provided as sterile filter paper (about 6 mm in diameter) and spotted with 20 μL of a selected compound. Each compound was initially dissolved in dimethylsulfoxide (DMSO); any subsequent dilutions were also made in DMSO. Each filter was placed on an LB agar plate spread with 100 μL of a bacterial culture that had been grown overnight in suitable LB broth. Plates were incubated overnight at 37° C., after which, the extent of growth inhibition around each filter disk was measured. Bacterial strains included Staphylococcus aureus (ATCC 25923), Pseudomonas aeruginosa PAO1, Bacillus subtilis W168 and Escherichia coli HB101. […] The latter two strains are non-pathogenic Gram-positive and Gram-negative bacterial strains, respectively.

Bacillus subtilis W168 [2] = test: Disk sensitivity test (modified Kirby-Bauer), B. subtilis;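 note: Compound-loaded filter disks on LB agar plates seeded with a bacterial lawn, plates held overnight at 37 °C, then the clear zone around each disk measured, compounds in DMSO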
Procedure: as §1

[3] = system: Pseudomonas aeruginosa PAO1; test: Disk sensitivity test (modified Kirby-Bauer), P. aeruginosa;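 note: Compound-loaded filter disks on LB agar lawns, DMSO as solvent, zone of inhibition around each disk read after overnight incubation at 37 °C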
Procedure: as §1

Escherichia coli HB101 [4] = test: Disk sensitivity test (modified Kirby-Bauer), E. coli;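 note: filter disk loaded with compound in DMSO laid on an LB agar bacterial lawn, kept overnight at 37 °C, then the inhibition zone around the disk is measured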
Procedure: as §1

[5] = system: Staphylococcus aureus (ATCC 25923); test: Minimum inhibitory concentration in LB broth, S. aureus; conditions: for Relative to AgNO3: efficacy per mole from MIC values
Bacillus subtilis W168 [6] = test: Minimum inhibitory concentration in LB broth, B. subtilis; conditions: for Relative to AgNO3: efficacy per mole from MIC values
[7] = system: Pseudomonas aeruginosa PAO1; test: Minimum inhibitory concentration in LB broth, P. aeruginosa; conditions: for Relative to AgNO3: efficacy per mole from MIC values
Escherichia coli HB101 [8] = test: Minimum inhibitory concentration in LB broth, E. coli; conditions: for Relative to AgNO3: efficacy per mole from MIC values;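 for all read-outs here: broth dilution MIC, test compounds first taken up in DMSO, then serially diluted in LB medium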
[9] = system: Gram positive and Gram negative bacteria; test: Antimicrobial activity, summary of TABLES 16-18
Procedure: The new class of fluorinated triazapentadiene compounds with and without metal complexation as described herein were analyzed for antibacterial activity against several bacterial strains (both Gram positive and Gram negative). Methods for antimicrobial analysis included a modified Kirby-Bauer method and a determination of their minimum inhibitory concentrations. In brief, the modified Kirby-Bauer method relied on placement of a filter disk impregnated with a desired compound on a solid growth medium. Bacteria were grown to a confluent lawn and the extent of growth inhibition was measured (e.g., as an extent/percentage of a clear zone on the disk and/or solid medium).
For MIC assessment, compounds were initially dissolved in DMSO and serial dilutions of soluble compounds were made in LB broth.

[10] = 1.00 × 10^0 μg/ml (printed 5.9 × 10^−6 mM)
[11] = 1.00 × 10^1 μg/ml (5.9 × 10^−5 mM)
[12] = 1.00 × 10^2 μg/ml (5.9 × 10^−4 mM [sic])
[13] = 1.00 × 10^3 μg/ml (printed 5.9 × 10^−3 mM)
[14] = 1.00 × 10^4 μg/ml (printed 5.9 × 10^−2 mM)

## O=[N+]([O-])[O-].[Ag+] [AgNO3, reference compound]
[1]; [10]
  Diameter of the zone of growth inhibition: 6.0 (NZ) mm
[1]; [11]
  Diameter of the zone of growth inhibition: 7.0 mm
[1]; [12]
  Diameter of the zone of growth inhibition: 8.5 mm
[1]; [13]
  Diameter of the zone of growth inhibition: 9.0 mm
[1]; [14]
  Diameter of the zone of growth inhibition: 10.5 mm
Bacillus subtilis W168 [2]; [10]
  Diameter of the zone of growth inhibition: 9.0 mm
Bacillus subtilis W168 [2]; [11]
  Diameter of the zone of growth inhibition: 9.5 mm
Bacillus subtilis W168 [2]; [12]
  Diameter of the zone of growth inhibition: 13.0 mm
Bacillus subtilis W168 [2]; [13]
  Diameter of the zone of growth inhibition: 13.0 mm
Bacillus subtilis W168 [2]; (printed 5.9 × 10^−2 mM)
  Diameter of the zone of growth inhibition: 16.0 mm
[3]; [10]
  Diameter of the zone of growth inhibition: 6.0 (NZ) mm
[3]; [11]
  Diameter of the zone of growth inhibition: 6.0 (NZ) mm
[3]; [12]
  Diameter of the zone of growth inhibition: 9.5 mm
[3]; [13]
  Diameter of the zone of growth inhibition: 12.5 mm
[3]; [14]
  Diameter of the zone of growth inhibition: 16.0 mm
Escherichia coli HB101 [4]; [10]
  Diameter of the zone of growth inhibition: 7.0 mm
Escherichia coli HB101 [4]; [11]
  Diameter of the zone of growth inhibition: 8.5 mm
Escherichia coli HB101 [4]; [12]
  Diameter of the zone of growth inhibition: 13.0 mm
Escherichia coli HB101 [4]; [13]
  Diameter of the zone of growth inhibition: 14.0 mm
Escherichia coli HB101 [4]; [14]
  Diameter of the zone of growth inhibition: 15.0 mm
[5]
  MIC: 12.50 μg/ml and 7.36 × 10^−2 mM
  Relative to AgNO3: 1.00
Bacillus subtilis W168 [6]
  MIC: 25.00 μg/ml and 1.47 × 10^−1 mM
  Relative to AgNO3: 1.00
[7]
  MIC: 3.12 μg/ml and 1.84 × 10^−2 mM
  Relative to AgNO3: 1.00
Escherichia coli HB101 [8]
  MIC: 10.0 μg/ml and 5.89 × 10^−2 mM
  Relative to AgNO3: 1.00

## FC(F)(F)C(F)(F)C(F)(F)C(=Nc1c(Cl)cccc1Cl)N=C([N]([Ag])c1c(Cl)cccc1Cl)C(F)(F)C(F)(F)C(F)(F)F [[N{(C3F7)C(2,6-Cl2C6H3)N}2]Ag]
[1]; 5.7 × 10^0 mM
  Diameter of the zone of growth inhibition: 16.5 mm
[1]; 5.7 × 10^1 mM
  Diameter of the zone of growth inhibition: 20.0 mm
[1]; 5.7 × 10^−1 mM
  Diameter of the zone of growth inhibition: 15.0 mm
[1]; 5.7 × 10^−2 mM
  Diameter of the zone of growth inhibition: 14.5 mm
[1]; 5.7 × 10^−3 mM
  Diameter of the zone of growth inhibition: 11.0 mm
[1]; 5.7 × 10^−4 mM
  Diameter of the zone of growth inhibition: 6.0 (NZ) mm
[1]; 5.7 × 10^−5 mM
  Diameter of the zone of growth inhibition: 6.0 (NZ) mm
Bacillus subtilis W168 [2]; 5.7 × 10^0 mM
  Diameter of the zone of growth inhibition: 21.0 mm
Bacillus subtilis W168 [2]; 5.7 × 10^1 mM
  Diameter of the zone of growth inhibition: 19.5 mm
Bacillus subtilis W168 [2]; 5.7 × 10^−1 mM
  Diameter of the zone of growth inhibition: 18.0 mm
Bacillus subtilis W168 [2]; 5.7 × 10^−2 mM
  Diameter of the zone of growth inhibition: 19.0 mm
Bacillus subtilis W168 [2]; 5.7 × 10^−3 mM
  Diameter of the zone of growth inhibition: 12.0 mm
Bacillus subtilis W168 [2]; 5.7 × 10^−4 mM
  Diameter of the zone of growth inhibition: 6.0 (NZ) mm
Bacillus subtilis W168 [2]; 5.7 × 10^−5 mM
  Diameter of the zone of growth inhibition: 6.0 (NZ) mm
[3]; 5.7 × 10^0 mM
  Diameter of the zone of growth inhibition: 13.5 mm
[3]; 5.7 × 10^1 mM
  Diameter of the zone of growth inhibition: 15.0 mm
[3]; 5.7 × 10^−1 mM
  Diameter of the zone of growth inhibition: 10.0 mm
[3]; 5.7 × 10^−2 mM
  Diameter of the zone of growth inhibition: 7.0 mm
[3]; 5.7 × 10^−3 mM
  Diameter of the zone of growth inhibition: 6.0 (NZ) mm
Escherichia coli HB101 [4]; 5.7 × 10^0 mM
  Diameter of the zone of growth inhibition: 16.0 mm
Escherichia coli HB101 [4]; 5.7 × 10^1 mM
  Diameter of the zone of growth inhibition: 15.5 mm
Escherichia coli HB101 [4]; 5.7 × 10^−1 mM
  Diameter of the zone of growth inhibition: 11.0 mm
Escherichia coli HB101 [4]; 5.7 × 10^−2 mM
  Diameter of the zone of growth inhibition: 9.0 mm
Escherichia coli HB101 [4]; 5.7 × 10^−3 mM
  Diameter of the zone of growth inhibition: 7.0 mm
[5]
  MIC: 0.853 μg/ml and 1.12 × 10^−2 mM
  Relative to AgNO3: 69.43
Bacillus subtilis W168 [6]
  MIC: 4.27 × 10^−1 μg/ml and 5.31 × 10^−4 mM
  Relative to AgNO3: 276.84
[7]
  MIC: 72.20 μg/ml and 8.98 × 10^−2 mM
  sensitivity of the bacteria to the compound (in words): most sensitive
  Relative to AgNO3: 2.05 × 10^−1
Escherichia coli HB101 [8]
  MIC: 72.20 μg/ml and 8.98 × 10^−2 mM
  sensitivity of the bacteria to the compound (in words): most sensitive
  Relative to AgNO3: 6.56 × 10^−1
[9]
  antimicrobial activity (in words): Effective
